According to US11274131B2, “IgM-mediated receptor clustering and cell modulation” (MAYO FOUNDATION FOR MEDICAL EDUCATION AND RESEARCH, priority 2007, dated 2022):

Key:
human DC [1] = assay: Calcium flux assay, human DC; format: cell-based
Experimental: Changes in the levels of intracellular Ca^2+ were assessed in Indol-loaded cells by flow cytometry as described previously (Takahashi et al. (2005) J. Exp. Med. 201:647-657). Briefly, 5×10^6 DC/ml were incubated with 5 μM Indo-1 (Calbiochem) at 37° C. for 30 minutes. The cells were washed twice in serum free media and resuspended at 10^6/ml in PBS containing 0.5% BSA. The samples were analyzed by flow cytometry using a UV laser. Violet (390 nm) and blue (500 nm) fluorescence emissions were recorded. Baseline was recorded for two minutes. Antibody was added to the cell suspension (10 μg/ml of control antibody or B7-DC XAb) and the measurements were recorded for 8 additional minutes. In blocking experiments, mouse or human DC were pre-incubated with 10 μg/ml of purified anti-mouse B7-DC antibody (TY-25) or purified anti-human B7-DC antibody (MIH18) for 15 minutes, followed by collection of data for calcium flux as described above. Ionomycin added at 1 μg/ml after 2 minutes served as a positive control. The blue to violet ratio was calculated using FlowJo software (Tristar, Ashland, Oreg.).

[2] = test system: CD11c+ draining lymph node cells; assay: In vivo antigen uptake by CD11c+ draining lymph node cells; design: species or system mouse; settings: systemic antibody
Experimental: FIG. 7A is a pair of pictures of western blot analysis for phosphorylation of DAP12 and Syk in B7-DC XAb or control antibody-treated mouse DC, as indicated. FIG. 7B is a graph plotting percent CD11c+ inguinal lymph node cells in mice after OVA-FITC was introduced into the footpads of mice treated systemically with isotype control antibody or the MTAb B7-DC XAb (n=3/group). Cells were analyzed by flow cytometry 24 hours after OVA-FITC introduction.
Antigen uptake experiments were carried out as described previously (Radhakrishnan et al. (2005) Proc. Natl. Acad. Sci. U.S.A. 102:11438-11443). Day 5 DC were matured with TLR ligand CpG-ODN for mouse DC, or with pI:C for human DC. The matured cells were incubated with ovalbumin labeled with FITC or APC and control antibody or B7-DC XAb for two hours, washed and analyzed by FACSCALIBUR™ (Becton Dickinson). In studies involving inhibitors, cells were pretreated 30 minutes as indicated or at 10 μM concentration prior to addition of control antibody or B7-DC XAb. In vivo antigen uptake assays involving wild type or TREM-2−/− mice were carried out by intravenous injection of 10 μg of control antibody or B7-DC XAb on three consecutive days (days −1, 0 and +1). Ovalbumin coupled to FITC was injected in the right foot pad at 1 mg/ml in PBS at 100 μA volume. […] The data are expressed as percent green cells (ovalbumin-FITC) that are positive for CD11c.

human DC [3] = assay: Cap formation / FRET on human DC; format: cell-based
Experimental: DC of murine origin were stained with anti-Class II-FITC (MF/114.15.2), and either anti-CD80-PE (16.10A1)/CD86-PE (GL-1), or anti-CD11c-PE (N418). DC of human origin were stained with anti-Class II-FITC (LN3) and anti-CD80-PE (2D10.4)/CD86-PE (IT2.2). All incubations were carried out for 15 minutes at 37° C. The cells were subsequently stimulated with 10 μg/ml of control (sHIgM39) or B7-DC XAb, and were observed every 5 minutes using time lapse confocal imaging at 40.times magnification with a LSM510 Laser scanning confocal microscope having a 37° C. stage (Carl-Zeiss Inc, Oberkochen, Germany). Jurkat cells were pre stained with anti-human CD28-FITC (CD28.2) for 15 minutes, followed by addition of 10 μg/ml of MTAb control antibody sHIgM39, MTAb sHIgM22, or anti-K^b IgM (28-13-3), and were and analyzed in the same manner as the DC.
The flow cytometry approach for FRET was used as a way of quantifying molecular aggregation on the cell surface and was carried out as described previously (Block et al. (2001) J. Immunol. 167:821-826). Briefly, DC of murine origin were stained with anti-Class II APC (M5/114.15.2) and anti-CD80-PE (16.10A1)/CD86-PE(GL-1) for 15 minutes to visualize FRET between these molecules. […] Data collected as log10 fluorescence were analyzed using CELLQUEST™ (BD Biosciences). […]

## B7-DC XAb: human monoclonal IgM from a Waldenstrom's macroglobulinemia patient that binds and cross-links B7-DC on DC
Human DC [1]
  intracellular calcium signal: prolonged calcium signals
[2]; TREM-2 KO mice
  uptake of labeled ovalbumin by CD11c+ lymph node cells: had no effect on uptake
[2]; wild type mice
  uptake of labeled ovalbumin in lymph nodes: significantly activated uptake of labeled ovalbumin
Human DC [3]
  reorganization of tagged class II, CD80, CD86 into a capped cluster: reorganized into a distinctly capped cluster
Human DC [3]; within ten minutes
  FRET among class II, CD80 and CD86: strong FRET signal
